Test results as given in ChEMBL document CHEMBL1201862, “PubChem BioAssay data set” (2004).
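Tested at 5 concentrations; 48 h exposure; 96-well plates; endpoints linearly interpolated, else capped at highest concentration. GI50 marks 50% less growth.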 The source made the active and inactive calls. No stated cut-off is given here; in the data, active = GI50 up to about 1.1 µM and inactive = higher.

Experiments:
Test in all cases: growth of human tumour cells (NCI), 48 h
[1] = tested on: OVCAR-4
[2] = tested on: SN12C
[3] = tested on: SNB-75
[4] = tested on: HCT-116
[5] = tested on: Hs-578T
[6] = tested on: SK-MEL-28
[7] = tested on: NCI/ADR-RES
[8] = tested on: A549
[9] = tested on: NCI-H460
[10] = tested on: HOP-62
[11] = tested on: NCI-H226
[12] = tested on: BT-549
[13] = tested on: MOLT-4
[14] = tested on: ACHN
[15] = tested on: DU-145
[16] = tested on: MDA-MB-231
[17] = tested on: HOP-92
[18] = tested on: K562
[19] = tested on: HL-60
[20] = tested on: SF-539

Measured: GI50

COc1nc(NC2OC(COC(C)=O)C(OC(C)=O)C(OC(C)=O)C2OC(C)=O)c(/N=C/C=N/c2c(NC3OC(COC(C)=O)C(OC(C)=O)C(OC(C)=O)C3OC(C)=O)nc(OC)n(C)c2=O)c(=O)n1C (stereo not given)
inactive: [1] > 100 µM | [2] > 100 µM | [3] 17 µM | [4] > 100 µM | [5] 28.3 µM | [6] > 100 µM | [7] > 100 µM | [8] > 100 µM | [9] > 100 µM | [10] 28.1 µM | [11] 97.5 µM | [12] > 100 µM | [13] > 100 µM | [14] > 100 µM | [15] > 100 µM | [16] > 100 µM | [17] 39 µM | [18] > 100 µM | [19] > 100 µM | [20] > 100 µM

CN(Cc1cc(Cl)cc(Cl)c1O)Cc1c(O)ccc2ccccc12
inactive: [1] 17.1 µM | [2] 21.2 µM | [3] 16.7 µM | [4] 23.7 µM | [5] 19.1 µM | [6] 19.1 µM | [7] 20.6 µM | [8] 26 µM | [9] 18.4 µM | [10] 18.1 µM | [11] 20.6 µM | [12] 17 µM | [13] 20.9 µM | [14] 17.3 µM | [15] 22.3 µM | [16] 16.9 µM | [17] 20.1 µM | [18] 26 µM | [19] 25.4 µM | [20] 20.9 µM

CN(C)c1ccc(/C(F)=C(F)/C(F)=C(F)/C(F)=C(\F)c2ccc(Br)cc2)cc1
inactive: [1] 23.9 µM | [2] 6.61 µM | [3] 27.2 µM | [4] 5.33 µM | [5] 17.2 µM | [6] > 100 µM | [7] 6.4 µM | [8] 31.5 µM | [9] 26.2 µM | [10] 37.2 µM | [11] 50 µM | [12] 31.8 µM | [13] 25.6 µM | [14] 52.8 µM | [15] 19.4 µM | [16] 39.5 µM | [17] 47.6 µM | [18] 13.2 µM | [19] 8.97 µM | [20] 33 µM

O=C1c2ccccc2C(=O)N1CCCSc1ccccc1
inactive: [1] 71.9 µM | [2] 71.3 µM | [3] 64.7 µM | [4] 94.2 µM | [5] > 100 µM | [6] > 100 µM | [7] 52 µM | [8] 76.2 µM | [9] 90.6 µM | [10] > 100 µM | [11] > 100 µM | [12] > 100 µM | [13] 31.8 µM | [14] > 100 µM | [15] > 100 µM | [16] > 100 µM | [17] > 100 µM | [18] 77.1 µM | [19] 75.7 µM | [20] > 100 µM

O=S(=O)(O)C1CCC(O)C2NCCCC21 (stereo not given)
inactive: [1] > 100 µM | [2] > 100 µM | [3] > 100 µM | [4] > 100 µM | [5] > 100 µM | [6] > 100 µM | [7] > 100 µM | [8] > 100 µM | [9] > 100 µM | [10] > 100 µM | [11] > 100 µM | [12] > 100 µM | [13] > 100 µM | [14] > 100 µM | [15] > 100 µM | [16] > 100 µM | [17] > 100 µM | [18] > 100 µM | [19] 20.7 µM | [20] > 100 µM
